According to ChEMBL document CHEMBL1201862, “PubChem BioAssay data set” (2004):
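Cells were grown in 96-well plates and exposed to each compound for 48 hours at five concentrations; endpoints were interpolated linearly between bracketing concentrations, or set to the highest concentration if not reached. The concentration for 50% growth inhibition is given as GI50.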 Active and inactive are the calls of the source. Rule as the data show it: active = GI50 up to about 1.1 µM and inactive = higher.

Legend:
Assay in all cases: NCI tumour cell line growth inhibition, 48 h
A498 = tested on: A498
ACHN = tested on: ACHN
HOP-92 = tested on: HOP-92
LXFL 529 = tested on: LXFL 529
A549 = tested on: A549
NCI-H522 = tested on: NCI-H522
SNB-75 = tested on: SNB-75
MOLT-4 = tested on: MOLT-4
LOX IMVI = tested on: LOX IMVI
HOP-62 = tested on: HOP-62
K562 = tested on: K562
SK-MEL-2 = tested on: SK-MEL-2
XF498 = tested on: XF498
M14 = tested on: M14
OVCAR-4 = tested on: OVCAR-4
KM-20L2 = tested on: KM-20L2
SK-OV-3 = tested on: SK-OV-3
NCI-H226 = tested on: NCI-H226
SK-MEL-5 = tested on: SK-MEL-5
SW-620 = tested on: SW-620
UACC-62 = tested on: UACC-62
NCI-H23 = tested on: NCI-H23
COLO 205 = tested on: COLO 205
EKVX = tested on: EKVX
HT-29 = tested on: HT-29
RPMI-8226 = tested on: RPMI-8226
RXF 393 = tested on: RXF 393
SF-539 = tested on: SF-539
HCT-116 = tested on: HCT-116
OVCAR-3 = tested on: OVCAR-3
IGROV-1 = tested on: IGROV-1
UACC-257 = tested on: UACC-257
M19-MEL = tested on: M19-MEL
DLD-1 = tested on: DLD-1
SF-268 = tested on: SF-268
U-251 = tested on: U-251
OVCAR-8 = tested on: OVCAR-8
UO-31 = tested on: UO-31
HCC 2998 = tested on: HCC 2998
CAKI-1 = tested on: CAKI-1
NCI-H460 = tested on: NCI-H460
SF-295 = tested on: SF-295
SK-MEL-28 = tested on: SK-MEL-28
HL-60 = tested on: HL-60
CCRF-CEM = tested on: CCRF-CEM
SN12C = tested on: SN12C
TK-10 = tested on: TK-10
OVCAR-5 = tested on: OVCAR-5
KM12 = tested on: KM12
Malme-3M = tested on: Malme-3M
SNB-78 = tested on: SNB-78
786-0 = tested on: 786-0
SNB-19 = tested on: SNB-19
Hs-578T = tested on: Hs-578T
MCF7 = tested on: MCF7
T47D = tested on: T47D
NCI/ADR-RES = tested on: NCI/ADR-RES
MDA-MB-231 = tested on: MDA-MB-231
HCT-15 = tested on: HCT-15
MDA-MB-435 = tested on: MDA-MB-435
PC-3 = tested on: PC-3
DU-145 = tested on: DU-145
SR = tested on: SR
MDA-N = tested on: MDA-N
BT-549 = tested on: BT-549

## O=C(OCc1nc2ccc(Br)cc2c(=O)n1-c1ccccc1)c1ccccc1O
A498
  GI50: 58.3 µM (inactive)
ACHN
  GI50: 70.5 µM (inactive)
HOP-92
  GI50: > 100 µM (inactive)
LXFL 529
  GI50: 35.4 µM (inactive)
A549
  GI50: 86.5 µM (inactive)
NCI-H522
  GI50: 38.1 µM (inactive)
SNB-75
  GI50: 28.4 µM (inactive)
MOLT-4
  GI50: 37.9 µM (inactive)
LOX IMVI
  GI50: > 100 µM (inactive)
HOP-62
  GI50: > 100 µM (inactive)
K562
  GI50: 54.7 µM (inactive)
SK-MEL-2
  GI50: 90.4 µM (inactive)
XF498
  GI50: 51.4 µM (inactive)
M14
  GI50: > 100 µM (inactive)
OVCAR-4
  GI50: 34.1 µM (inactive)
KM-20L2
  GI50: > 100 µM (inactive)
SK-OV-3
  GI50: > 100 µM (inactive)
NCI-H226
  GI50: 57.5 µM (inactive)
SK-MEL-5
  GI50: 18.1 µM (inactive)
SW-620
  GI50: > 100 µM (inactive)
UACC-62
  GI50: > 100 µM (inactive)
NCI-H23
  GI50: 37.3 µM (inactive)
COLO 205
  GI50: > 100 µM (inactive)
EKVX
  GI50: 66.1 µM (inactive)
HT-29
  GI50: 84.9 µM (inactive)
RPMI-8226
  GI50: 29.4 µM (inactive)
RXF 393
  GI50: > 100 µM (inactive)
SF-539
  GI50: > 100 µM (inactive)
HCT-116
  GI50: > 100 µM (inactive)
OVCAR-3
  GI50: 2.32 µM (inactive)
IGROV-1
  GI50: > 100 µM (inactive)
UACC-257
  GI50: 61.5 µM (inactive)
M19-MEL
  GI50: > 100 µM (inactive)
DLD-1
  GI50: 67.1 µM (inactive)
SF-268
  GI50: 78.9 µM (inactive)
U-251
  GI50: > 100 µM (inactive)
OVCAR-8
  GI50: > 100 µM (inactive)
UO-31
  GI50: 29.8 µM (inactive)
HCC 2998
  GI50: > 100 µM (inactive)
CAKI-1
  GI50: 39.8 µM (inactive)
NCI-H460
  GI50: > 100 µM (inactive)
SF-295
  GI50: > 100 µM (inactive)
SK-MEL-28
  GI50: > 100 µM (inactive)
HL-60
  GI50: 36.7 µM (inactive)
CCRF-CEM
  GI50: 48.3 µM (inactive)
SN12C
  GI50: > 100 µM (inactive)
TK-10
  GI50: > 100 µM (inactive)
OVCAR-5
  GI50: > 100 µM (inactive)
KM12
  GI50: > 100 µM (inactive)
Malme-3M
  GI50: > 100 µM (inactive)
SNB-78
  GI50: > 100 µM (inactive)
786-0
  GI50: 74.8 µM (inactive)

## COc1cccc(C2c3cc4c(cc3OC(N3CCOCC3)C2C)OCO4)c1O (stereo not given)
A498
  GI50: 6.27 µM (inactive)
ACHN
  GI50: 10.1 µM (inactive)
SNB-19
  GI50: 3.44 µM (inactive)
HOP-92
  GI50: 12.1 µM (inactive)
A549
  GI50: 4.82 µM (inactive)
Hs-578T
  GI50: 1.77 µM (inactive)
NCI-H522
  GI50: 2.9 µM (inactive)
SNB-75
  GI50: 7.29 µM (inactive)
MOLT-4
  GI50: 4.02 µM (inactive)
LOX IMVI
  GI50: 5.31 µM (inactive)
HOP-62
  GI50: 4.27 µM (inactive)
MCF7
  GI50: 5.14 µM (inactive)
K562
  GI50: 3.06 µM (inactive)
SK-MEL-2
  GI50: 7.1 µM (inactive)
M14
  GI50: 4.6 µM (inactive)
OVCAR-4
  GI50: 9.86 µM (inactive)
SK-OV-3
  GI50: 5.56 µM (inactive)
NCI-H226
  GI50: 4.46 µM (inactive)
T47D
  GI50: 4.48 µM (inactive)
SK-MEL-5
  GI50: 3.6 µM (inactive)
SW-620
  GI50: 3.87 µM (inactive)
UACC-62
  GI50: 4.53 µM (inactive)
NCI/ADR-RES
  GI50: 7.21 µM (inactive)
NCI-H23
  GI50: 6.73 µM (inactive)
COLO 205
  GI50: 4.28 µM (inactive)
EKVX
  GI50: 9.14 µM (inactive)
HT-29
  GI50: 4.02 µM (inactive)
RPMI-8226
  GI50: 2.83 µM (inactive)
MDA-MB-231
  GI50: 11.6 µM (inactive)
RXF 393
  GI50: 2.13 µM (inactive)
HCT-15
  GI50: 3.32 µM
SF-539
  GI50: 2.69 µM (inactive)
HCT-116
  GI50: 3.84 µM (inactive)
OVCAR-3
  GI50: 3.64 µM (inactive)
IGROV-1
  GI50: 6.19 µM (inactive)
UACC-257
  GI50: 9.14 µM (inactive)
MDA-MB-435
  GI50: 1.24 µM (inactive)
PC-3
  GI50: 4.7 µM (inactive)
SF-268
  GI50: 6.89 µM (inactive)
U-251
  GI50: 0.38 µM (active)
OVCAR-8
  GI50: 6.59 µM (inactive)
UO-31
  GI50: 8.3 µM (inactive)
HCC 2998
  GI50: 7.23 µM (inactive)
DU-145
  GI50: 4.43 µM (inactive)
CAKI-1
  GI50: 2.66 µM (inactive)
NCI-H460
  GI50: 3.55 µM (inactive)
SF-295
  GI50: 3.64 µM (inactive)
SK-MEL-28
  GI50: 10.9 µM (inactive)
HL-60
  GI50: 2.26 µM (inactive)
CCRF-CEM
  GI50: 3.28 µM (inactive)
SN12C
  GI50: 6.59 µM (inactive)
SR
  GI50: 1.23 µM (inactive)
TK-10
  GI50: 8.24 µM (inactive)
OVCAR-5
  GI50: 7.46 µM (inactive)
KM12
  GI50: 3.48 µM (inactive)
Malme-3M
  GI50: 4.99 µM (inactive)
MDA-N
  GI50: 1.03 µM (active)
BT-549
  GI50: 13.9 µM (inactive)
786-0
  GI50: 5.6 µM (inactive)

## [Se]=P(c1ccccc1)(c1ccccc1)c1ccc(C(c2ccccc2)=P(c2ccccc2)(c2ccccc2)c2ccccc2)cc1
A498
  GI50: 2.76 µM (inactive)
ACHN
  GI50: 2.44 µM (inactive)
SNB-19
  GI50: 1.01 µM (active)
HOP-92
  GI50: 0.357 µM (active)
A549
  GI50: 1.44 µM (inactive)
Hs-578T
  GI50: 0.435 µM (active)
NCI-H522
  GI50: 0.33 µM (active)
SNB-75
  GI50: 0.431 µM (active)
MOLT-4
  GI50: 1.32 µM (inactive)
LOX IMVI
  GI50: 0.807 µM (active)
HOP-62
  GI50: 1.13 µM (inactive)
MCF7
  GI50: 0.695 µM (active)
K562
  GI50: 0.182 µM (active)
SK-MEL-2
  GI50: 0.957 µM (active)
M14
  GI50: 1.54 µM (inactive)
OVCAR-4
  GI50: 0.443 µM (active)
SK-OV-3
  GI50: 2.05 µM (inactive)
NCI-H226
  GI50: 1.31 µM (inactive)
T47D
  GI50: 0.537 µM (active)
SK-MEL-5
  GI50: 0.505 µM (active)
SW-620
  GI50: 1.19 µM (inactive)
UACC-62
  GI50: 1.02 µM (active)
NCI/ADR-RES
  GI50: 7.67 µM (inactive)
NCI-H23
  GI50: 0.891 µM (active)
COLO 205
  GI50: 0.308 µM (active)
EKVX
  GI50: 1.89 µM (inactive)
HT-29
  GI50: 0.406 µM (active)
RPMI-8226
  GI50: 0.313 µM (active)
MDA-MB-231
  GI50: 0.661 µM (active)
RXF 393
  GI50: 1.57 µM (inactive)
HCT-15
  GI50: 4.55 µM
SF-539
  GI50: 1.46 µM (inactive)
HCT-116
  GI50: 0.6 µM (active)
OVCAR-3
  GI50: 0.621 µM (active)
IGROV-1
  GI50: 0.773 µM (active)
UACC-257
  GI50: 0.817 µM (active)
MDA-MB-435
  GI50: 0.671 µM (active)
PC-3
  GI50: 0.8 µM (active)
SF-268
  GI50: 0.514 µM (active)
U-251
  GI50: 0.385 µM (active)
OVCAR-8
  GI50: 0.764 µM (active)
UO-31
  GI50: 3.27 µM (inactive)
HCC 2998
  GI50: 0.979 µM (active)
DU-145
  GI50: 1.24 µM (inactive)
CAKI-1
  GI50: 2.3 µM (inactive)
NCI-H460
  GI50: 1.28 µM (inactive)
SF-295
  GI50: 2.27 µM (inactive)
SK-MEL-28
  GI50: 2.28 µM (inactive)
HL-60
  GI50: 0.0881 µM (active)
CCRF-CEM
  GI50: 0.495 µM (active)
SN12C
  GI50: 1.23 µM (inactive)
SR
  GI50: 0.415 µM (active)
TK-10
  GI50: 1.41 µM (inactive)
OVCAR-5
  GI50: 3.05 µM (inactive)
KM12
  GI50: 0.439 µM (active)
Malme-3M
  GI50: 0.499 µM (active)
MDA-N
  GI50: 0.753 µM (active)
BT-549
  GI50: 0.929 µM (active)
786-0
  GI50: 1.2 µM (inactive)
